Where a SMILES comes first, the peptide text is derived from it.
Legend:
MCF7 cells = MCF7 cells (Homo sapiens, UniProt P08069); test: antagonism assay in starved MCF7 cells, luminescence viability, 72 hrs; type: cell-based; conditions: read-out: Cell; Table 11
Method: Additional binding and antagonism assays using candidate peptides were performed. […] Cell viability was determined by luminescence assay and IC50 was calculated using standard techniques.

[1] = molecular target: T1, His-tagged soluble recombinant human IGF-IR (srhIGF-1R-his) (Homo sapiens, UniProt P08069); test: ALPHAScreen competition binding assay, biotinylated hIGF-1
T1 construct: The extra-cellular domain of IGF-1R was obtained as a recombinant protein from R&D Systems; purchased R&D Systems, Inc., Minneapolis, Minn
Method: Binding Assays. […] Detection of the receptor ligand interaction was measured in an amplified luminescent proximity homogeneous assay (ALPHAScreen; BioSignal-Packard, Montreal). The assay was performed in 384-well Nunc™ white polystyrene microplates (Nalge Nunc International, Naperville, Ill.) with a final volume of 40 μL. […] Each concentration of competitor was assayed in duplicate. Non-specific binding was determined in the presence of 3×10^−5 M hIGF-1. The second step of the assay was to add acceptor beads and the incubation continued for 0.5 hr. The final step was to add donor beads and the incubation continued for an additional 1 hr. […] Primary data were background corrected, normalized to buffer controls and then expressed as % Specific Binding. The data were fit to a four-parameter non-linear regression analysis (y=min+(max-min)/(1+10̂((log IC50-x)*Hillslope))), which was used to determine IC50 values. The Z′-factor for this assay is greater than 0.7 (Z′=1-(3σ++3σ−)/|μ+−μ−|) and the signal-to-background (SB) ratio was between 40 and 70.

Chain of MCF7 cells (P08069 31-736): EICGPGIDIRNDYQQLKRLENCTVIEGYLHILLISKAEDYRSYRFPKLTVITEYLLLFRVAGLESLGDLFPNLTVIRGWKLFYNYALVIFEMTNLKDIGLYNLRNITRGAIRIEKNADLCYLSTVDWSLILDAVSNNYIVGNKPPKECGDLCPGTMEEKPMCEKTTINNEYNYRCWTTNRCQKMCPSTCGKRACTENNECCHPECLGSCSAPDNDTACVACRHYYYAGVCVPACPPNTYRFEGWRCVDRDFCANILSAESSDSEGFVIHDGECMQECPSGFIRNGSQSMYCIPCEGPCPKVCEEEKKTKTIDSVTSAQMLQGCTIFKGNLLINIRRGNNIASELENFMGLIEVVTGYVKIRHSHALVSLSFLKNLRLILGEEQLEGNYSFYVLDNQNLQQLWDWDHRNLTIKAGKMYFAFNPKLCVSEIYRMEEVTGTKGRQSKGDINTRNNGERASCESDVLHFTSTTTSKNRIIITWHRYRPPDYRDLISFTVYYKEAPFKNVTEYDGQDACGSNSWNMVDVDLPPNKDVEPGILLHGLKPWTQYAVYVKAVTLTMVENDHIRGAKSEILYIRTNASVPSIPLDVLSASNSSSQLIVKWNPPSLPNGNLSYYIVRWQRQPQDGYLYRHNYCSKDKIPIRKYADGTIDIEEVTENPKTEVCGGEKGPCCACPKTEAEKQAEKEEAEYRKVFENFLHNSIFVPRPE
T1 sequence (P08069 31-736 limits assumed): as the sequence (P08069 31-736) above
T1 sequence (P08069 741-935 limits assumed): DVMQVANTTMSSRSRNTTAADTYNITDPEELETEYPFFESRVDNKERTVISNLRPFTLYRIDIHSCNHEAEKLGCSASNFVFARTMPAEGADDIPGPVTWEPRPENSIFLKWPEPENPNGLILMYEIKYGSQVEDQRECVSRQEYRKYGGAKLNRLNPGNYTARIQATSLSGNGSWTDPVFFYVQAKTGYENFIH

CC(C)C[C@H](NC(=O)[C@H](CS)NC(=O)[C@H](CO)NC(=O)[C@H](Cc1ccc(O)cc1)NC(=O)[C@H](Cc1ccccc1)NC(=O)[C@@H](N)[C@@H](C)O)C(=O)N[C@@H](C)C(=O)N[C@@H](CO)C(=O)N[C@@H](CC(C)C)C(=O)N[C@@H](CC(C)C)C(=O)N[C@H](C(=O)NCC(=O)N[C@H](C(=O)N1CCC[C@H]1C(=O)N[C@@H](CCC(N)=O)C(=O)N1CCC[C@H]1C(=O)N[C@@H](CC(N)=O)C(=O)N[C@@H](CCCNC(=N)N)C(=O)NCC(=O)N1CCC[C@H]1C(=O)N[C@@H](Cc1c[nH]c2ccccc12)C(=O)N[C@@H](CCC(=O)O)C(=O)N[C@@H](CCCNC(=N)N)C(=O)N[C@@H](CS)C(=O)N[C@@H](CCCNC(=N)N)C(=O)O)[C@@H](C)O)[C@@H](C)O [RP6] (H-TFYSCLASLLTGTPQPNRGPWERCR-OH)
IC50 (MCF7 cells): 9 µM | IC50 [1]: 2.7 µM

Reference: patent US20110039779A1, “IGF-1R BINDING PROTEINS AND ANTAGONISTS” (priority 2007, published 2011)
